Key:
[1] = target: IQN57 (HR1 hydrophobic pocket) (Human respiratory syncytial virus A, UniProt P03420); conditions: 30 μM compound, 20° C., HR1 alone
Description: 20 μM biotinylated-IQN57 was immobilized on a Streptavidin-certified sensor chip (GE Healthcare, Diegem, Belgium) surface in PBS at a flow rate of 10 μl/min and a contact time of 7 min. A reference flow cell was used as a control for nonspecific binding and refractive index changes. […] Several PBS+5% dimethylsulfoxide (DMSO; Sigma Aldrich NV, Bornem, Belgium) buffer blanks were injected over the course of an experiment for double referencing. The flow system was washed between sample injections with running buffer containing 50% DMSO, and the immobilized surface was regenerated with one injection of 0.2% sodiumdodecylsulfate for 30 sec. SPR biosensor data were collected on a BIAcore S51. All experiments were conducted at 20° C.

[2] = target: biotin-labeled IQN57 / FITC-labeled C45 (HR1-CTC and HR2) (Human respiratory syncytial virus A, UniProt P03420); conditions: 6HB-formation ELISA, FIG. 3E
Description: White streptavidin-coated 96-well plates (NoAb Biodiscoveries, Mississauga, Canada) were blocked with PBS+5% BSA for 1 h and then washed three times with PBS. 10 nM biotin-labeled IQN57 dissolved in PBS+1% BSA was non-covalently bound to the surfaces of the 96-well plate for 30 min and then wells were washed again 3 times with PBS. […] Subsequently, POD-conjugated anti-FITC Fab fragment (1:5000) (Roche Applied Science, Vilvoorde, Belgium) in PBS+1% BSA was administered to the wells and incubated for 30 min. Finally, wells were washed again three times with PBS, Supersignal West Femto chemiluminescent substrate from Pierce (Perbio Science, Erembodegem, Belgium) added and signals were analyzed on a ViewLux UltraHTS microplate reader (Perkin Elmer, Zaventem, Belgium). Assay conditions without addition of biotin-labeled IQN57, FITC-labeled C45, POD-conjugated anti-FITC Fab fragment, or chemiluminescent substrate were included as negative controls or control of background signal in each of the experiments. In addition, assay conditions with saquinavir, Fuzeon® (T20), or the HIV-1-derived HR1 peptide (biotin-labeled IQN36) were used as specificity controls in each experiment.

[3] = tested on: HR1-derived peptide; conditions: prior art (Cianci et al.); cited from earlier work
[4] = tested on: RSV; experiment: RSV antiviral cellular assay; type: cell-based, hRSV; conditions: for EC50: human respiratory syncytial virus, pEC50 = -log10 EC50 (M), RSV antiviral cellular assay, read-out: In vitro activity (pEC50) (converted); for log reduction in activity on structural modification: reduction of antiviral activity versus parent compound of the Compound Z series
[5] = target: T1, HR1 (IQN57) and HR2 (C45) heptad-repeat peptides (Human respiratory syncytial virus A, UniProt P03420); type: binding, hRSV; conditions: competition assay, FIG. 3C
T1 construct: IQ trimerisation segment (GCN4-pIQI-type coiled coil)
T1 sequence (P03420 153-209): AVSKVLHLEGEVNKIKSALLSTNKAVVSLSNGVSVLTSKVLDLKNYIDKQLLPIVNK
T1 sequence (P03420 476-520): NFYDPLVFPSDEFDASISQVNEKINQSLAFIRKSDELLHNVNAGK

Chain of biotin-labeled IQN57 / FITC-labeled C45 (HR1-CTC and HR2) (P03420 476-520): as above
Chain of biotin-labeled IQN57 / FITC-labeled C45 (HR1-CTC and HR2) (P03420 153-209): as the sequence (P03420 153-209) above
Chain of IQN57 (HR1 hydrophobic pocket) (P03420 153-209): as above

Row | SMILES | EC50 [4] [M] | log reduction in activity on structural modification [4] [log] | further results
1 | O=c1n(Cc2nc3ccccc3n2CCCCO)c2cnccc2n1C1CC1 [BMS433771, reference compound] | – | – | Binding to HR1 (IQN57) by SPR [1]: do not bind to the HR1 hydrophobic pocket alone; Effect on interaction of HR2 (C45) with HR1-CTC (IQN57) [2]: facilitate the interaction of HR2 with the HR1-CTC; Binding to an HR1-derived peptide alone [3]: relatively weak
2 | Cc1cccc(NCc2ccc3nc(NCCCN4CCOCC4)n(Cc4nc(C)ccc4O)c3c2)c1 [Compound 2] | 2.51e-09 | 1.3 | –
3 | COc1ccc(C)nc1Cn1c(NCCCN2CCOCC2)nc2ccc(CNc3cc(C)ccc3CCCO)cc21 [Compound 6] | 2.51e-09 | 1.3 | –
4 | Cc1ccc(CCCO)c(NCc2ccc3nc(N)n(Cc4nc(C)ccc4O)c3c2)c1 [Compound 4] | 3.16e-11 | – | log improvement in activity ([4]; removal of the morpholinopropyl group): 0.6 log
5 | Cc1ccc(CCCO)c(NCc2ccc3ncn(Cc4nc(C)ccc4O)c3c2)c1 [Compound 5] | 1.26e-08 | 2.6 | –
6 | Cc1ccc(CCCO)c(NCc2ccc3nc(NCCCN4CCOCC4)n(Cc4nc(C)ccc4O)c3c2)c1 [Compound 1, 2-[6-{[2-(3-hydroxy-propyl)-5-methyl-phenylamino]-methyl}-2-(3-morpholin-4-yl-propylamino)-benzoimidazol-1-ylmethyl]-6-methyl-pyridin-3-ol] | – | – | Competition with compound X for binding [5]: competed for the same binding pocket; Binding to HR1 (IQN57) by SPR [1]: do not bind to the HR1 hydrophobic pocket alone; Effect on interaction of HR2 (C45) with HR1-CTC (IQN57) [2]: facilitate the interaction of HR2 with the HR1-CTC
7 | Cc1ccc(O)c(Cn2c(NCCCN3CCOCC3)nc3ccccc32)n1 [Compound 3] | 1.58e-07 | – | further log decrease in potency ([4]; further truncation of the methylamino-toluene moiety, relative to compound 2): 0.8 log

— patent US8898047B2, “Methods for identifying inhibitors against viruses that use a class I fusion protein” (Janssen Pharmaceuticals NV, priority 2008, dated 2014)
